Assay results reported in patent US9868748B2, “Thiazolopyrrolidine inhibitors of ROR- γ” (Vitae Pharmaceuticals, Inc., priority 2013, dated 2018).
Like-named read-outs stand apart in the source and are kept apart here.

How the values were obtained:
[1] = molecular target: full-length RORγt in Jurkat cells (Homo sapiens (Human), UniProt P51449); assay: RORγt 5xRORE Assay in Jurkat Cells (Assay 2); format: cell-based; details: Nanoluc luciferase reporter, 16-18 hrs
Experimental: [formula] RORγt 5xRORE Assay in Jurkat Cells (Assay 2)
Compounds of the present invention were tested for RORγ inverse agonist activity in a cell-based, transcriptional activity assay. Secreted Nanoluc® luciferase was used as a reporter for transcriptional activity of the full-length RORγt in Jurkat cells (ATCC, Cat. # TIB-152). A reporter plasmid was constructed by inserting 5 repeats of the ROR Response Element (RORE) […] (SEQ ID NO:1) into a commercially available promoterless plasmid pNL1.3[secNluc] (Promega, Cat. # N1021) using KpnI and HindIII restriction sites. The expression plasmid for RORγt was purchased (Geneocopoeia, Cat. # EX-T6988-M02). Jurkat cells (30 million cells) were transfected with 11 μg of EX-T6988-MO2 and 26 μg of the reporter plasmid in OptiMEM® media using Lipofectamine® LTX and Plus™ reagents (Life Technologies, Cat. #15338-100). After 5-6 h of incubation at 37° C./5% CO2, the cells were collected, resuspended in phenol-red free RPMI media containing 10% (v/v) delipidated FBS (Hyclone, Cat. # SH30855.03) and dispensed into 96-well clear bottom tissue culture plates (CoStar, Cat. #3603), at 80,000 cells per well. Tested compounds were added to the cells in the same media (final concentration of DMSO was 0.1% (v/v)), and the plates were incubated at 37° C./5% CO2 for 16-18 hrs. Luciferase activity in the conditioned supernatants was determined with NanoGlo® assay reagents (Promega, Cat. # N1130).

[2] = molecular target: recombinant RORγ Ligand Binding Domain (LBD) protein (Homo sapiens (Human), UniProt P51449); assay: Radio-Ligand RORγ Binding Assay (Assay 1); details: competition with 25-hydroxy [26,27-3H]-cholesterol, SPA, read-out: RORγ Binding Ki Range*
Experimental: Radio-Ligand RORγ Binding Assay (Assay 1)
Compounds of the present invention were tested for ability to bind to RORγ in a cell-free competition assay with commercially available radio-ligand (RL), 25-hydroxy [26,27-^3H]— cholesterol (PerkinElmer, Cat. # NET674250UC), for a ligand binding site on a recombinant RORγ Ligand Binding Domain (LBD) protein expressed as a 6×His-Glutathione-S-Transferase (GST) fusion (“6×His” disclosed as SEQ ID NO: 2). The assay was performed in 96-well SPA plates (PerkinElmer, Cat. #1450-401) in 50 mM HEPES buffer, pH 7.4, containing 150 mM NaCl, 5 mM MgCl2, 10% (v/v) glycerol, 2 mM CHAPS, 0.5 mM β-octylglucopyranoside and 5 mM DTT. Tested compounds were dissolved in DMSO, and semi-log (3.162×) serial dilutions of the compounds were prepared in the same solvent. Two μL of the DMSO solutions were mixed with 28 μL of 8.6 nM 25-hydroxy [26,27-^3H]— cholesterol and 50 μL of 24 nM RORγ LBD. The plate was shaken at 700 rpm for 20 min and incubated for 10 min at rt, after which 40 μL of poly-Lys YSi SPA beads (PerkinElmer, Cat. # RPNQ0010) were added to achieve 50 μg of the beads per well. The plate was incubated on an orbital shaker for 20 min and then for 10 min without agitation at rt. SPA signal for tritium beta radiation was registered on PerkinElmer Microbeta plate reader. Percent inhibition values were calculated based on the high signal obtained with DMSO control and the low signal observed with 10 μM standard RORγ inverse agonist T0901317 (SigmaAldrich, Cat. # T2320). The percent inhibition vs. concentration data were fit into a four-parameter model, and […] values were calculated from the fit as the concentrations corresponding to the inflection points on the dose-response curves. Inhibitory constants (Ki) were calculated using the following equation, where [RL] is the concentration in the assay and KD is a dissociation constant of 25-hydroxy [26,27-^3H]-cholesterol: […]

[3] = Table 9, read-out: RORγt5X IC50 Range*
[4] = Table 8, read-out: RORγt5X IC50 Range*

Chain of full-length RORγt in Jurkat cells (P51449 other isoform, or with tags, fused parts or gaps): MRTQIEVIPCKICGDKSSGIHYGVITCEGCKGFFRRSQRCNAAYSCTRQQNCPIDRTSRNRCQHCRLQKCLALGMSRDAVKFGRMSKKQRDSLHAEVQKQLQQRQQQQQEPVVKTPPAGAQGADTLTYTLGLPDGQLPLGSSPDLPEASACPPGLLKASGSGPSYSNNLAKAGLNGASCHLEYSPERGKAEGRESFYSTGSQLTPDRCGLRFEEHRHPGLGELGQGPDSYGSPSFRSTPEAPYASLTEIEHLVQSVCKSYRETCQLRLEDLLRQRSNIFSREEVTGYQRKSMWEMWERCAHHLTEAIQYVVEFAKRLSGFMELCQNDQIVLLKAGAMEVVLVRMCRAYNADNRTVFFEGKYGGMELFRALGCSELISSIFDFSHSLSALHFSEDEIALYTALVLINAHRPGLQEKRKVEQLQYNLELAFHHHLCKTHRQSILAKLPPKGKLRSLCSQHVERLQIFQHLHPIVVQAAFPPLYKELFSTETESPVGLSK
Chain of recombinant RORγ Ligand Binding Domain (LBD) protein (P51449 269-508): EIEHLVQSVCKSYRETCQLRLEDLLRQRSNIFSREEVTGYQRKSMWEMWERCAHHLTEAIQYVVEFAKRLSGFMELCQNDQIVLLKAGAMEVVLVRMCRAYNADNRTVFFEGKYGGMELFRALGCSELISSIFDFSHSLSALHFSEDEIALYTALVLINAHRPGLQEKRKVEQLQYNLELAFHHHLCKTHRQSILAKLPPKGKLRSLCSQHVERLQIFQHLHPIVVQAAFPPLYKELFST

Row | SMILES | IC50 [1, 3] | Ki ([2]; Table 9) | IC50 [1, 4] | Ki ([2]; Table 8)
1 | CC(C)[C@H]1c2nc(NC(=O)Cc3ccc(-c4nnnn4C)cc3)sc2CN1Cc1ccc(Cl)cc1 | > 1000 nM | 100 to 1000 nM |  | 
2 | CCS(=O)(=O)c1ccc(CC(=O)Nc2nc3c(s2)CN(Cc2ccn(CC(F)(F)F)c(=O)c2)[C@H]3C(C)C)cc1 | < 100 nM | < 100 nM |  | 
3 | CC(C)[C@H]1c2nc(NC(=O)Cc3ccc(S(C)(=O)=O)cc3)sc2CN1[C@H](C)c1cnc(Cl)cc1F | 100 to 1000 nM | < 100 nM |  | 
4 | CCS(=O)(=O)c1ccc(CC(=O)Nc2nc3c(s2)CN(Cc2ncc(Cl)cc2F)[C@H]3C(C)C)cc1 [I-A10] |  |  | < 100 nM | < 100 nM
5 | CCS(=O)(=O)c1ccc(CC(=O)Nc2nc3c(s2)CN([C@H](C)c2ncc(Cl)cc2F)[C@H]3C(C)C)cc1 [I-A53] |  |  | < 100 nM | < 100 nM
6 | CCS(=O)(=O)c1ccc(CC(=O)Nc2nc3c(s2)CN(Cc2nnc(C(F)(F)F)o2)[C@H]3C(C)C)cc1 [I-A9] |  |  | > 1000 nM | < 100 nM
7 | CC[C@@H]1c2nc(NC(=O)Cc3ccc(S(=O)(=O)CC)cc3)sc2CN1Cc1ccc(OC(C)C)cc1 | > 1000 nM | < 100 nM |  | 
8 | CCS(=O)(=O)c1ccc(CC(=O)Nc2nc3c(s2)CN(Cc2ccc(F)cc2F)[C@H]3C(C)C)cc1 | > 1000 nM | < 100 nM |  | 
9 | CCS(=O)(=O)c1ccc(CC(=O)Nc2nc3c(s2)CN(C[C@H]2CC[C@@H](C(F)(F)F)N(C)C2)C3C(C)C)cc1 (single isomer, unassigned) | > 1000 nM | < 100 nM |  | 
10 | CCS(=O)(=O)c1ccc(CNC(=O)c2nc3c(s2)CN(Cc2cnc(C(F)(F)F)nc2)[C@H]3C(C)C)cc1 | 100 to 1000 nM | 100 to 1000 nM |  | 
11 | CC[C@@]1(C)c2nc(NC(=O)Cc3ccc(S(=O)(=O)CC)cc3)sc2CN1Cc1ccc(Cl)cc1 | < 100 nM | < 100 nM |  | 
12 | Cc1cc(CN2Cc3sc(NC(=O)Cc4ccc(C#N)cc4)nc3[C@@H]2C(C)C)ccc1C#N | 100 to 1000 nM | < 100 nM |  | 
13 | CCS(=O)(=O)c1ccc(CC(=O)Nc2nc3c(s2)CN(Cc2ccc(OC(F)(F)F)cc2)[C@H]3C(C)C)cc1 [I-A16] |  |  | < 100 nM | < 100 nM
14 | CCS(=O)(=O)c1ccc(CC(=O)Nc2nc3c(s2)CN([C@@H](C)Cc2ccccc2C(F)(F)F)[C@@H]3C(C)C)cc1 | > 1000 nM | < 100 nM |  | 
15 | CC(C)[C@H]1c2nc(C(=O)NCc3ccc(S(C)(=O)=O)cc3)sc2CN1Cc1ccc(C#N)c(F)c1 | 100 to 1000 nM | < 100 nM |  | 
16 | CCS(=O)(=O)c1ccc(CC(=O)Nc2nc3c(s2)CN(Cc2ccc(C(F)(F)F)cc2)[C@@H]3C(C)C)cc1 | 100 to 1000 nM | < 100 nM |  | 
17 | CC(C)[C@H]1c2nc(NC(=O)Cc3ccc(Br)cc3)sc2CN1Cc1ccc(Cl)cc1 | > 1000 nM | 100 to 1000 nM |  | 
18 | CCS(=O)(=O)c1ccc(CC(=O)Nc2nc3c(s2)CN(Cc2ccc(Cl)cc2)[C@H]3C(C)C)c(Cl)c1 | < 100 nM | < 100 nM |  | 

Row | SMILES | IC50 [1, 3] | Ki ([2]; Table 9) | IC50 [1, 4] | Ki ([2]; Table 8)
19 | CCS(=O)(=O)c1ccc(CC(=O)Nc2nc3c(s2)CN(Cc2ccn(C4CC4)c(=O)c2)[C@H]3C(C)C)cc1 | 100 to 1000 nM | < 100 nM |  | 
20 | CCS(=O)(=O)c1cnc(CC(=O)Nc2nc3c(s2)CN(Cc2ccc(Cl)cc2)[C@H]3C(C)C)nc1 | 100 to 1000 nM | < 100 nM |  | 
21 | CCS(=O)(=O)c1ccc(CC(=O)Nc2nc3c(s2)CN(Cc2ccc(-c4ccn(C)c(=O)c4)cc2)[C@H]3C(C)C)cc1 [I-A18, (S)-2-(4-(ethylsulfonyl)phenyl)-N-(4-isopropyl-5-(4-(1-methyl-2-oxo-1,2-dihydropyridin-4-yl)benzyl)-5,6-dihydro-4H-pyrrolo[3,4-d]thiazol-2-yl)acetamide] |  |  | < 100 nM | < 100 nM
22 | Cc1nc(C(F)(F)F)ccc1CN1Cc2sc(NC(=O)Cc3ccc(S(C)(=O)=O)cc3)nc2[C@@H]1C(C)C [I-B13] |  |  | < 100 nM | < 100 nM
23 | CC(C)[C@H]1c2nc(NC(=O)Cc3ccc(S(C)(=O)=O)cc3)sc2CN1[C@@H](C)c1ccc(C#N)c(F)c1 (single isomer, unassigned) | < 100 nM | < 100 nM |  | 
24 | CC(C)[C@H]1c2nc(NC(=O)Cc3ccc(C(=O)O)cc3)sc2CN1Cc1ccc(Cl)cc1 | 100 to 1000 nM | < 100 nM |  | 
25 | CC(C)c1ccc(CN2Cc3sc(NC(=O)Cc4ccc(S(C)(=O)=O)cc4)nc3[C@H]2C(C)C)cc1 | > 1000 nM | < 100 nM |  | 
26 | CCS(=O)(=O)c1ccc(CC(=O)Nc2nc3c(s2)CN(c2nc(C)cc(C(F)(F)F)n2)[C@@H]3C(C)C)cc1 | > 1000 nM | < 100 nM |  | 
27 | CC(C)[C@H]1c2nc(NC(=O)Cc3ccc(S(C)(=O)=O)cc3)sc2CN1Cc1ccc(C(F)(F)F)nn1 | 100 to 1000 nM | 100 to 1000 nM |  | 
28 | CCS(=O)(=O)c1ccc(CC(=O)Nc2nc3c(s2)CN(C[C@H]2CC[C@@H](C(F)(F)F)N(C4CC4)C2)[C@H]3C(C)C)cc1 (single isomer, unassigned) | > 1000 nM | < 100 nM |  | 
29 | CCS(=O)(=O)c1ccc(CC(=O)Nc2nc3c(s2)CN(C[C@H]2CC[C@@H](C(F)(F)F)OC2)[C@H]3C(C)C)nc1 (single isomer, unassigned) | 100 to 1000 nM | < 100 nM |  | 
30 | CC[C@H]1c2nc(NC(=O)Cc3ccc(S(=O)(=O)CC)cc3)sc2CN1Cc1ccc2nc[nH]c2c1 | 100 to 1000 nM | < 100 nM |  | 
31 | CCS(=O)(=O)c1ccc(CC(=O)Nc2nc3c(s2)CN(C[C@H]2CC[C@H](C(F)(F)F)CC2)[C@H]3C(C)C)cc1 [I-A17, 2-(4-(ethylsulfonyl)phenyl)-N—((S)-4-isopropyl-5-((trans-4-(trifluoromethyl)cyclohexyl)methyl)-5,6-dihydro-4H-pyrrolo[3,4-d]thiazol-2-yl)acetamide] |  |  | < 100 nM | < 100 nM
32 | CCS(=O)(=O)c1ccc(CC(=O)Nc2nc3c(s2)CN(c2ncc(C(C)=O)c(C(F)(F)F)n2)[C@H]3C(C)C)cc1 | > 1000 nM | < 100 nM |  | 
33 | CCS(=O)(=O)c1ccc(CC(=O)Nc2nc3c(s2)CN(Cc2ccc(F)cc2)C3Cc2cccc(Br)c2)cc1 (stereo not drawn) [I-F1, N-(4-(3-bromobenzyl)-5-(4-fluorobenzyl)-5,6-dihydro-4H-pyrrolo[3,4-d]thiazol-2-yl)-2-(4-(ethylsulfonyl)phenyl)acetamide] |  |  | > 1000 nM | < 100 nM
34 | CCS(=O)(=O)c1ccc(CC(=O)Nc2nc3c(s2)CN(c2nccc(C(F)(F)F)n2)C3(C)C)cc1 | > 1000 nM | < 100 nM |  | 
35 | CC(C)[C@H]1c2nc(C(=O)NCc3ccc(S(C)(=O)=O)cc3)sc2CN1Cc1ccc(C(F)(F)F)cc1 | < 100 nM | < 100 nM |  | 
36 | COc1ccc(CC(=O)Nc2nc3c(s2)CN(Cc2ccc(Cl)cc2)[C@H]3C(C)C)cc1 | > 1000 nM | < 100 nM |  | 
